In patent publication US7544700B2, “Pharmaceutically active sulfonamide derivatives bearing both lipophilic and ionisable moieties as inhibitors of protein JunKinases” (Laboratoires Serono SA, priority 2000, dated 2009):

Key:
[1] = test system: Hela luciferase reporter-c-Jun (HLR-c-Jun) cell lines; experiment: C-Jun reporter assay; type: cell-based; conditions: Homo sapiens, MEKK-1 transfected HLR-c-Jun cells
Excerpt: The phosphorylation of the transcriptional factor, c-jun, by JNK in the MAP kinase signal transduction pathway can be followed via a trans-reporting system such as the commercially available PathDetect® (32).
A trans-reporting system allows one to follow, via Luciferase activity, the activation status of a fusion trans-activator protein. The trans-activator protein consists of the activation domain of the transcriptional factor of interest (c-jun) fused with a yeast transcriptional activator, GAL4 DNA binding domain (dbd). The GAL4 dbd has the advantage that no known mammalian transcriptional factors can bind to it and therefore the background noise of the assay is very low.
In the present case, Hela luciferase reporter-c-Jun (HLR-c-Jun) cell lines which constitutively express GAL4-cJun were used.
The MEKK-1 gene was inserted. MEKK-1 is a MAPKKK which triggers the activation of JNK. Expression of wild type MEKK-1 is sufficient for JNK activation (33).
Once, JNK is activated it can induce the phosphorylation of the c-jun domain of the fusion trans-activator protein (GAL4dbd-cJun) which forms a dimer. The dimer is then is able to bind to a GAL4 upstream activating sequence (GAL4 UAS) of the reporter which activates Luciferase expression.
Luciferase expression is detected by luminescence using a simple assay such as Dual-Luciferase® Reporter Assay System (34) in which Renilla is used as a “control reporter”.
Inhibition of JNK is observed as a decrease in Luciferase expression and detected by a decrease in luminescence.
HLR-c-Jun cells are cultured in DMEM High Glc supplemented with 10% FCS (Sigma), 2 mM Glutamine (Gibco), P/S, Hygromycin b 100 μg/mL and G418 250 μg/mL.
The cell suspensions are diluted with medium to give about 3.5×10^6 cells/mL and […] of cell suspension are put onto 2 10 cm culture dishes containing 9 mL of culture medium.
Transfections • Control: 0.2 μg pTK Renilla, 5.8 μg pBluescript KS, 500 μl OPTIMEM (GOBCO), 18 μl Fugene 6. • Induced: 0.1 μg pMEKK1, 0.2 μg pTK Renilla, 5.7 μg pBluescript KS, 500 μl OPTIEM (GIBCO), 18 μl Fugene 6 30′ RT.
The transfection mixture is added to the plated cells. The plates are incubated over night at 37° C. in a humidified atmosphere of 5% CO2 in air.
A 96 wells plate (100 μl of culture medium per well) is prepared. Negative control (vehicle): 2 μl of DMSO is added to the 100 μl (in triplicate). […]
The medium is removed from the plate and the cells are washed two times with 100 μl PBS. […] The luminometer reading is recorded.
−50 μl of Luciferase Assay Reagent II are injected and readings are recorded at 5 and 10 minutes.
50 μl of Stop & Glo® Reagent are injected and readings are recorded at 5 and 10 minutes.
The relative luminescence is then measured: RLU Luciferase/RLU Renilla.

[2] = molecular target: GST-JNK3 (Homo sapiens, UniProt P53779); experiment: JNK3 in vitro assay (33P incorporation into c-jun, SPA); type: biochemical
GST-JNK3, sequence (P53779 whole entry): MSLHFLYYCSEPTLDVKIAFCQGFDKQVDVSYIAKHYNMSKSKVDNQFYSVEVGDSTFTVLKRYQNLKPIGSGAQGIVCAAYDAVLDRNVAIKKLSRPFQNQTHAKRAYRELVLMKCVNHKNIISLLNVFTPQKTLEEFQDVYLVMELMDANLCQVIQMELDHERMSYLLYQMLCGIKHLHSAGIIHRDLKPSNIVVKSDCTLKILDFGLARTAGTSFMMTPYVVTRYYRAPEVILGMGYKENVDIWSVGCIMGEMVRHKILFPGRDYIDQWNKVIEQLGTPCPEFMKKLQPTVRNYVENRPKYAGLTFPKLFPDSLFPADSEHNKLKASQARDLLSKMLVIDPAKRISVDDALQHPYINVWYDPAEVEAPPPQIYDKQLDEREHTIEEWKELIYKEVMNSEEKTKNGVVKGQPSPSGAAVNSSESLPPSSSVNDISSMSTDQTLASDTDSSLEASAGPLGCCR
Method: The phosphorylation of c-jun by JNK2 or JNK3 may be followed by monitoring the incorporation of ^33P into c-jun following the protocol below. The inhibitory activity of the compounds according to formula I, in respect of c-jun phosphorylation through JNK, is determined by calculating the phosphorylation activity of a JNK in the presence or absence of the test compounds according to formula I.
JNK3 and/or -2 assays are performed in 96 well NM plates: incubation of 0.5 μg of recombinant, pre-activated GST-JNK3 or GST-JNK2 with 1 μg of recombinant, biotinylated GST-c-Jun and 2 μM ^33γ-ATP (2 nCi/μl), in the presence or absence of compounds according to formula I and in a reaction volume of 50 μl containing 50 mM Tris-HCl, pH 8.0; 10 mM MgCl2; 1 mM Dithiothreitol, and 100 μM NaVO4. The incubation is performed for 120 min. at R.T and stopped upon addition of 200 μl of a solution containing 250 μg of Streptavidine-coated SPA beads (Amersham, Inc.)*, 5 mM EDTA, 0.1% Triton X-100 and 50 μM ATP, in phosphate saline buffer. After incubation for 60 minutes at RT, beads are sedimented by centrifugation at 1500×g for 5 minutes, resuspended in 200 μl of PBS containing 5 mM EDTA, 0.1% Triton X-100 and 50 μM ATP and the radioactivity measured in a scintillation β counter, following sedimentation of the beads as described above. By replacing biotinylated GST-c Jun with biotinylated GST-1ATF2 or biotinylated myelin basic protein, this assay may also be used to measure inhibition of pre-activated p38 and ERK MAP Kinases, respectively.

COc1cccc(C(=O)NCc2ccc(S(=O)(=O)N3CCC(NCc4ccc(C(F)(F)F)cc4)CC3)s2)c1 [Example 1, 3-Methoxy-N-{[5-({4-[(4-trifluoromethylbenzyl)amino]piperidin-1-yl}sulfonyl)thien-2-yl]methyl}benzamide]
IC50 [1]: < 700 nM
IC50 [2]: < 600 nM
